# Source: PMC11547827, “Discovery of Cyclic Peptide Inhibitors Targeted on TNFα-TNFR1 from Computational Design and Bioactivity Verification” (Molecules, 2024)
# “Also recorded” adds a separate entry of the source. Where a SMILES comes first, the peptide text is derived from it. Bridges are numbered along the chain shown (N, C = ends).
# Tests used:
# [1] = target: T1, hTNFR1 (Homo sapiens, UniProt P19438); test: ELISA binding affinity to hTNFR1
# T1 sequence (P19438 30-455): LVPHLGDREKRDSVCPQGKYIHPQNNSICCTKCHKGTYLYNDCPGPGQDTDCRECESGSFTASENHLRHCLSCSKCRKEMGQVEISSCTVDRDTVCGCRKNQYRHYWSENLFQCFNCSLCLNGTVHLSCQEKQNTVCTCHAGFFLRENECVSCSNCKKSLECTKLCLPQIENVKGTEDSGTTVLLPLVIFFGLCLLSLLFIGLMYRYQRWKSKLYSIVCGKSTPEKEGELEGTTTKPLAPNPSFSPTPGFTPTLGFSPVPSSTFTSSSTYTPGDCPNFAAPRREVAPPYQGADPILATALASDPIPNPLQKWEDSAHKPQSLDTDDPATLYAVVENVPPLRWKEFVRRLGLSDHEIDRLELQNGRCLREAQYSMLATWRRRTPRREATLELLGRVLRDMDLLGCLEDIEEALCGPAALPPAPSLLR
# Experimental: The hTNFR1 (100 ng) was coated on a 96-well ELISA plate (BIOFIL, Guangzhou, China) overnight at 4 °C, followed by blocking the plate with 200 μL of 3% skim milk solution in PBST (PBS, 0.05% Tween20) for 2 h at 37 °C. […] After incubating with the cyclic peptides for 2 h at room temperature, […] mAB (Solarbio, Beijing, China) was diluted at 1:500, and was incubated for an additional 2 h at room temperature. Five washes with PBST were carried out between each incubation to remove nonspecific absorbance. After the final wash, the samples were incubated in the dark with freshly prepared TMB Chromogen Solution (Sangon Biotech, Shanghai, China) for 10 min at room temperature to develop the signals. After adding the stop solution (1 M H2SO4), the plates were read at 450 nm on a plate reader. The raw data were processed to calculate the Kd value.
# [2] = target: TNFα; settings: cited from earlier work
# Source text: Several potential small molecules of TNFα inhibitors have already been reported.
# [3] = tested on: TNFα trimer; settings: cited from earlier work
# Source text: Several potential small molecules of TNFα inhibitors have already been reported. […] Furthermore, through structure-based virtual screening and biological assay, Xie’s group identified two novel antagonists, T1 and R1 (Figure S1A), which could bind to TNFα or TNFR1, with low-micromolar binding affinities to TNFα and TNFR1, respectively ...
# [4] = tested on: TNFα-mediated cytotoxicity in L929 cells; test: Neutralization of TNFα induced necrosis in L929 cells
# Experimental: L929 cells were seeded at a density of 8000 cells/well in a 96-well plate and incubated for 24 h in RPMI 1640 with 10% FBS at 37 °C. The experiment was divided into a blank group, a control group, a positive control group, and an experimental group. […] Serially diluted α_CC8 was added to cells and incubated at 37 °C, 5% CO2 for 2 h initially, and then 50 μL 10 ng/mL human TNFα was added and incubated overnight (17 h). 1 μg/mL Etanercept was used as a positive control. Subsequently, 100 μL 5% CCK-8 was added per well, followed by incubation of 2 h. The control group consisted of normal cultured cells without TNFα stimulation, while the blank control group contained empty wells without cells. At last, cell viability was confirmed by measuring the absorbance of each well at 450 nm. Cell viability was calculated according to Formula (7). Data was analyzed with SPSSAU (https://spssau.com/, Accessed on 14 August 2023) using the paired t-test to compare the differences between the experimental and control groups.
# [5] = tested on: L929 cells; settings: α_CC8, 200 μM, 24 h, CCK-8, 450 nm, n = 3
# Experimental: L929 cells were seeded in a 96-well plate at a density of 8000 cells per well and cultured for 24 h under standard conditions. Then, the liquid in the wells was discarded, and 100 µL of medium containing different concentrations of cyclic peptides was added. After incubation for 24 h, the liquid in the well was discarded, and the medium was replaced with CCK-8 working solution (100 μL RPMI 1640 medium containing 5% CCK-8) and incubated in the dark for 2 h. The absorbance of each well at 450 nm was detected with a microplate reader. The same operation was performed with wells not seeded with cells as a blank group to eliminate systematic errors. Cell viability was calculated according to the following formula:(7) Cell viability(%)=(ODtest−ODblank)/(ODcontrol−ODblank)×100%
compound,measurement,setting,value
CC[C@H](C)[C@@H]1NC(=O)[C@H](CCCNC(=N)N)NC(=O)[C@H](CO)NC(=O)[C@H]([C@@H](C)CC)NC(=O)[C@H]([C@@H](C)O)NC(=O)[C@@H](N)CSSC[C@@H](C(=O)O)NC(=O)[C@H](CO)NC(=O)[C@H](CC(C)C)NC(=O)[C@H](CCCNC(=N)N)NC(=O)[C@H](CC(N)=O)NC(=O)[C@H](C(C)C)NC(=O)[C@H](CCCCN)NC(=O)[C@H]([C@@H](C)O)NC(=O)[C@H](CCC(N)=O)NC(=O)[C@H](Cc2ccc(O)cc2)NC(=O)[C@H](CO)NC(=O)[C@H](C(C)C)NC(=O)[C@H](CCCCN)NC1=O [L16R] (H-CTISRIKVSYQTKVNRLSC-OH; disulfide 1-19; N-terminus and C-terminus assumed),binding to hTNFR1 (in words),[1],good binding condition with hTNFR1
"Cc1cc2occ(CN(C)CCN(C)Cc3cn(-c4cccc(C(F)(F)F)c4)c4ccccc34)c(=O)c2cc1C [SPD-304, reference compound]",Kd,[2]; TNFα small molecule antagonist,5.36 µM
same,effect on TNFα trimer (in words),[3],greatly increase the dissociation rate of the TNFα trimer
CC[C@H](C)[C@@H]1NC(=O)[C@H](CCCNC(=N)N)NC(=O)[C@H](CO)NC(=O)[C@H]([C@@H](C)CC)NC(=O)[C@H]([C@@H](C)O)NC(=O)[C@@H](N)CSSC[C@@H](C(=O)O)NC(=O)[C@H](CO)NC(=O)[C@H](CC(C)C)NC(=O)[C@H](CC(C)C)NC(=O)[C@H](CC(N)=O)NC(=O)[C@H](C(C)C)NC(=O)[C@H](CCCCN)NC(=O)[C@H]([C@@H](C)O)NC(=O)[C@H](CCC(N)=O)NC(=O)[C@H](Cc2ccc(O)cc2)NC(=O)[C@H](CO)NC(=O)[C@H](C(C)C)NC(=O)[C@H](C)NC1=O [α_CC8] (H-CTISRIAVSYQTKVNLLSC-OH; disulfide 1-19; N-terminus and C-terminus assumed),inhibition of TNFα-mediated cytotoxicity (in words),[4]; L929 cells,effectively inhibit the TNFα-mediated cytotoxicity; also recorded: better bioactivity and lower effective concentration than R1_CC4; also recorded: improve cell viability significantly by inhibiting TNFα-mediated necrosis; also recorded: higher biological activity and effective concentration than R1_CC4
same,concentration at which survival rate increased significantly,"[4]; L929 cells, human TNFα 10 ng/mL, 17 h, CCK-8, n = 3",60 µM
same,increase of cell survival rate,"[4]; α_CC8 60 μM, 2 h with cells, then human TNFα 17 h, n = 3",17.8%
same,survival rate of L929 cells,[5],≤ 90%
Etanercept,blocking effect compared with the cyclic peptides (in words),"[4]; Etanercept 1 μg/mL, positive control, L929 cells",stronger blocking effect on the formation of TNFα/TNFR1
same,TNFα binding (in words),"[2]; background statement, no reference given",strong ability to bind TNFα
TNFα,survival rate of L929 cells after TNFα,"[4]; TNFα alone, 10 ng/mL, 17 h, average",42%
